One assay addresses T1, Na^+,K^+-ATPase (Sus scrofa, UniProt P05024).
T1 construct: from tissue; host or cells: porcine kidney (gift of Natalya Fedosova, Aarhus University)
Briefly: ATP hydrolysis assay, Na+,K+-ATPase. The assay is classed as biochemical, porcine. The protocol:
Rabbit sarcoplasmic reticulum membranes containing sarcoplasmic endoplasmic reticulum Ca^2+-ATPase (SERCA) were kindly provided by Claus E. Olesen and Jesper V. Møller, Aarhus University, and prepared as described in reference. Porcine kidney Na^+,K^+-ATPase was kindly provided by Natalya Fedosova, Aarhus University, and prepared as described in reference.
The protein activity levels were determined by measuring the amount of free phosphate produced from the ATP hydrolysis reaction. The assay was performed as described in reference. Each well contained ATPase enzyme, 2 μl of inhibitor (usually in the range of 333 to 0.01 μM) dissolved in dimethyl sulfoxide (DMSO) (Duchefa Biochemie, Haarlem, The Netherlands), and an assay buffer dependent on the enzyme for a final volume of 60 μl. Possible compound precipitation in the assay buffer was monitored using a Nephelostar plate reader measuring turbidity, and the information was taken into account in the IC50 determination. Pma1 assay buffer consisted of 20 mM 3-(N-morpholino)propanesulfonic acid (MOPS)–NaOH, pH 6.5 or 7.0, 8 mM MgSO4, 50 mM KNO3 (a vacuolar ATPase inhibitor), 25 mM sodium azide (a mitochondrial ATPase inhibitor), and 250 μM sodium molybdate (an acid phosphatase inhibitor). SERCA buffer consisted of 9 mM MOPS-NaOH, pH 7, 2.7 mM MgCl2, 90 μM CaCl2, and 72 mM KCl. Na^+,K^+-ATPase buffer consisted of 30 mM MOPS-NaOH, pH 7, 40 mM NaCl, 4 mM MgCl2, and 20 mM KCl. The concentration of protein was adjusted to obtain a signal of the optical density at 860 nm (OD860) of between 0.5 and 1.0 in the untreated samples (for all Pma1 batches, ∼1 to 2 μg/well; for SERCA and Na^+,K^+-ATPase, ∼0.1 to 0.2 μg/well).

The test system of assay [1] is Aspergillus fumigatus ATCC 13073. The assay can be described thus: microbe, parasite or virus in culture. The conditions noted are these: for MIC: Aspergillus fumigatus. The protocol:
(§1) The following fungal isolates were used: Saccharomyces cerevisiae ATCC 9763, Candida albicans SC5314, Candida parapsilosis ATCC 22019, Candida tropicalis Ct016, Candida glabrata ATCC 90030, Aspergillus fumigatus ATCC 13073, and Aspergillus flavus ATCC MYA-1005. Frozen stocks of yeast isolates in glycerol (final concentration, 20%) were prepared by growing the cells to log phase in YPD medium at 30°C and 150 rpm. Frozen stocks of mold spores were prepared by harvesting spores from 7-day-old potato glucose agar plates in phosphate-buffered saline, 0.1% Tween 80 and aliquoting these spores in the presence of glycerol (final concentration, 20%). The cells were stored at −80°C. The cells or spores were thawed and diluted to a final concentration of 0.5 × 10^5 to 2.5 × 10^5 CFU/ml in sterile Milli-Q H2O. […] The plate was incubated for 20 to 24 h at 34°C (72 h for molds), and the OD490 was measured on a Victor X5 (PerkinElmer) plate reader. Mold growth assay plates were also visually inspected. The MIC was defined as the lowest concentration inhibiting the visual growth of the microorganism.

The next assay has as its system Candida albicans SC5314. Briefly: microbe, parasite or virus in culture. As to conditions: for MIC: Candida albicans. As for the experimental part: as §1
The subject of assay [2] is Candida glabrata ATCC 90030. The assay can be described thus: microbe, parasite or virus in culture. The conditions noted are these: for MIC: Nakaseomyces glabratus. As for the experimental part: as §1
For assay [3], the system named is Candida parapsilosis ATCC 22019. The assay can be described thus: microbe, parasite or virus in culture. As to conditions: for MIC: Lodderomyces parapsilosis. The protocol:
as §1

In a further assay the test system is Candida tropicalis Ct016. The assay can be described thus: microbe, parasite or virus in culture. The conditions noted are these: for MIC: Candida tropicalis. The protocol:
as §1

Setting [4] is: Table 1, ATP hydrolysis at pH 7, read-out: IC50 Na^+,K^+-ATPase.
The mark [5] stands for this setting: ATCC13073, 72 h, pH 7, read-out: MIC A. fumigatus.
Setting [6] is: SC5314, pH 7, read-out: MIC C. albicans.
[7] abbreviates: ATCC90030, pH 7, read-out: MIC C. glabrata.
The mark [8] stands for this setting: ATCC22019, pH 7, read-out: MIC C. parapsilosis.
Where [9] appears, read: CT016, pH 7, read-out: MIC C. tropicalis.
The mark [10] stands for this setting: Table 1, ATP hydrolysis at pH 7.4 (compounds marked b), read-out: IC50 Na^+,K^+-ATPase.
[11] abbreviates: ATCC13073, read-out: MIC for growth inhibition, A. fumigatus.
[12] abbreviates: SC5314, read-out: Growth inhibition MIC, C. albicans in RPMI.
Where [13] appears, read: SC5314, read-out: MIC for growth inhibition, C. albicans.
[14] abbreviates: ATCC90030, read-out: MIC for growth inhibition, C. glabrata.
Setting [15] is: ATCC22019, read-out: MIC for growth inhibition, C. parapsilosis.
[16] abbreviates: CT016, read-out: MIC for growth inhibition, C. tropicalis.

Converted amounts (≈) assume the structure as drawn. Where two headings read alike, the source gives them in different places. Residues, ends and D or L forms follow the SMILES beside them.

On to `COc1cccc(Nc2nc(Cl)nc(Nc3cccc(OC)c3)n2)c1` [Compound 9], for which the IC50 at Na^+,K^+-ATPase (setting [4]) is > 105 µM. Besides, the MIC (in assay [1] (setting [5]); in the assay with Candida albicans SC5314 (setting [6]); in assay [2] (setting [7]); in assay [3] (setting [8]); with Candida tropicalis Ct016 (setting [9])) was > 150 µM each time.
In the case of `CC1CCCCN1CC(O)Cn1c(-c2ccccc2)c(-c2ccccc2)c2ccc3ccccc3c21` (stereo not shown) [Compound 4], the concentration for half-maximal inhibition (IC50) on Na^+,K^+-ATPase (setting [10]) was determined as 15 ± 7.2 µM. The MIC was > 38 µM in assay [1] (setting [5]); 13 µM (≈ 6.17 µg/mL) in the assay with Candida albicans SC5314 (setting [6]); > 38 µM in assay [2] (setting [7]); > 38 µM in assay [3] (setting [8]); 12 µM (≈ 5.7 µg/mL) with Candida tropicalis Ct016 (setting [9]).
Regarding `CCOc1ccc2nc3cc(NC(=O)c4cccc(Br)c4)ccc3c(N)c2c1` [Compound 5], the IC50 on Na^+,K^+-ATPase (setting [10]) amounted to 1.3 ± 0.3 µM. The MIC was > 75 µM in assay [1] (setting [5]); 6.5 µM (≈ 2.84 µg/mL) in the assay on Candida albicans SC5314 (setting [6]); 5.8 µM (≈ 2.53 µg/mL) in assay [2] (setting [7]); 7.5 µM (≈ 3.27 µg/mL) in assay [3] (setting [8]); 7.5 µM (≈ 3.27 µg/mL) in the assay with Candida tropicalis Ct016 (setting [9]).
For the compound `CCCCc1nc2sc3c(NCCCN(C)C)ncnc3c2c2c1CCCC2` [Compound 14], the IC50 at Na^+,K^+-ATPase (setting [4]) worked out at 18.4 ± 2.1 µM. Further, the MIC came to 75 µM (≈ 29.8 µg/mL) in assay [1] (setting [5]); 75 µM (≈ 29.8 µg/mL) in assay [1] (setting [11]); 36 µM (≈ 14.3 µg/mL) in the assay on Candida albicans SC5314 (setting [6]); 36 µM (≈ 14.3 µg/mL) in the assay on Candida albicans SC5314 (setting [12]); 36 µM (≈ 14.3 µg/mL) in the assay with Candida albicans SC5314 (setting [13]); 41 µM (≈ 16.3 µg/mL) in assay [2] (setting [7]). Further, the MIC stood at 41 µM (≈ 16.3 µg/mL) in assay [2] (setting [14]); 24 µM (≈ 9.54 µg/mL) in assay [3] (setting [8]); 24 µM (≈ 9.54 µg/mL) in assay [3] (setting [15]); 24 µM (≈ 9.54 µg/mL) with Candida tropicalis Ct016 (setting [9]); 24 µM (≈ 9.54 µg/mL) in the assay with Candida tropicalis Ct016 (setting [16]).
For `COc1ccc(-c2cc(C(=O)Nc3ccc(C(C)C)cc3)c3ccccc3n2)c(OC)c1` [Compound 3], the IC50 on Na^+,K^+-ATPase (setting [4]) was > 105 µM. The MIC (in assay [1] (setting [5]); in the assay on Candida albicans SC5314 (setting [6]); in assay [2] (setting [7]); in assay [3] (setting [8]); in the assay on Candida tropicalis Ct016 (setting [9])) was > 150 µM throughout.
Compound `N=C(N)NCCC[C@@H](N)C(=O)N[C@H](CCCNC(=N)N)C(=O)N[C@H](CCCNC(=N)N)C(=O)N[C@H](Cc1ccccc1)C(=O)N[C@H](Cc1c[nH]c2ccccc12)C(=O)N[C@H](Cc1c[nH]c2ccccc12)C(=O)N[C@H](Cc1ccccc1)C(=O)N[C@H](CCCNC(=N)N)C(=O)N[C@H](CCCNC(=N)N)C(=O)N[C@H](CCCNC(=N)N)C(N)=O` [BM2, reference compound] (HELM PEPTIDE1{[dR].[dR].[dR].[dF].[dW].[dW].[dF].[dR].[dR].[dR].[am]}$$$$V2.0) came in with an IC50 on Na^+,K^+-ATPase of 10.4 ± 2.7 µM. The “MIC for growth inhibition, A. fumigatus” value in assay [1] (ATCC 13073) is >150 µM. For the same compound, in the assay with Candida albicans SC5314 (SC5314), the “MIC for growth inhibition, C. albicans” value was found to be 15 µM. Further, the “MIC for growth inhibition, C. glabrata” value in assay [2] (ATCC 90030) is 150 µM. In assay [3] (ATCC 22019), the “MIC for growth inhibition, C. parapsilosis” value was 26 µM. In addition, in the assay with Candida tropicalis Ct016 (Ct016), the “MIC for growth inhibition, C. tropicalis” value is 4.7 µM.
Regarding `CN(C)CCCNc1ncnc2c1sc1nc(-c3ccccc3)c3c(c12)CCC3` [Compound 18], at Na^+,K^+-ATPase (Table 2, pH 7, n = 2, porcine kidney, read-out: IC50 for ATP hydrolysis, Na^+,K^+-ATPase), the 50% inhibitory concentration (IC50) is 85.7 ± 26.6 µM. Moreover, the MIC was determined as 75 µM (≈ 30.3 µg/mL) in assay [1] (setting [11]); 75 µM (≈ 30.3 µg/mL) with Candida albicans SC5314 (setting [12]); 75 µM (≈ 30.3 µg/mL) in the assay on Candida albicans SC5314 (setting [13]); 41 µM (≈ 16.5 µg/mL) in assay [2] (setting [14]); 24 µM (≈ 9.69 µg/mL) in assay [3] (setting [15]); 58 µM (≈ 23.4 µg/mL) in the assay on Candida tropicalis Ct016 (setting [16]).
